Laboratory results: paper PMC9926234, “Iterative computational design and crystallographic screening identifies potent inhibitors targeting the Nsp3 macrodomain of SARS-CoV-2” (Proceedings of the National Academy of Sciences of the …, 2023)

Biological target: SARS-CoV-2 NSP3 Mac1 (Severe acute respiratory syndrome coronavirus 2, UniProt P0DTD1)
Assay type: binding
Set-up: contains a conserved macrodomain enzyme (Mac1)
Settings: DSF dose responsiveness, 1 µM nsp3 mac1; adj p given
Protocol: DSF and associated compound handling was performed as described ([12]), with 5 µM dye “Fluorescent Yellow” (Jacquard iDye Cat #JID1405) used in place of SYPRO Orange. Compounds were tested in triplicate, at seven concentrations in two-fold serial dilutions, at a top concentration of either 1,000 or 100 μM. To minimize experimental noise arising from plate location-based effects on Tma, all concentrations and replicates for each compound were tested within a single region of the microtiter plates, including a DMSO-only control from which ΔTmas were calculated for that compound. […] For each compound, to determine statistical significance of the dose responsive thermal shift, the Spearman’s coefficient was calculated between compound concentration and ΔTma.

In order of rising “Spearman est (compound concentration vs apparent Tm)” value:
1. COC(=O)C1Cc2c(O)cccc2C1NC(=O)c1ccc(NC(=O)NC2CC2)cc1 (stereo not drawn) [8539_0076]  −0.19
2. O=C(O)CC1Cc2ccccc2N1C(=O)c1ccc(NC(=O)NC2CC2)cc1 (stereo not drawn) [8539_0039]  0.09
3. CNc1ccc(C(=O)N2CC(C(=O)O)CC2(C)C)cn1 (stereo not drawn) [REAL250001652488]  0.12
4. NC(=O)c1cc(N2CCCC[C@H]2C(=O)O)ncn1 [REAL250003324764]  0.14
5. NC(=O)C1CCCN(c2ncnc3[nH]c4cc(F)ccc4c23)C1 (stereo not drawn) [LL1_0016]  0.18
6. CNc1ccc(C(=O)N2CC(C(=O)O)CC23CCOCC3)cn1 (stereo not drawn) [REAL300007318908]  0.29
7. O=S1(=O)CCC2(CCCN(c3ncnc4[nH]c5cc(F)ccc5c34)C2)C1 (stereo not drawn) [LL1_0010]  0.3
8. O=C1CC2(CC2)C(CSc2n[nH]c(-c3ccccn3)n2)O1 (stereo not drawn) [FRESH00010267028]  0.52

Same assay, conditions: maximal thermal upshift

In the case of `O=C(O)CC1Cc2ccccc2N1C(=O)c1ccc(NC(=O)NC2CC2)cc1` (stereo not drawn) [8539_0039], the “DSF max dTma” value is reported as 2.09 ˚C.
`COC(=O)C1Cc2c(O)cccc2C1NC(=O)c1ccc(NC(=O)NC2CC2)cc1` (stereo not drawn) [8539_0076] was tested, and the “DSF max dTma” value was 0 ˚C.
In the case of `O=C1CC2(CC2)C(CSc2n[nH]c(-c3ccccn3)n2)O1` (stereo not drawn) [FRESH00010267028], the “DSF max dTma” value is reported as 0.32 ˚C.
In the case of `O=S1(=O)CCC2(CCCN(c3ncnc4[nH]c5cc(F)ccc5c34)C2)C1` (stereo not drawn) [LL1_0010], the “DSF max dTma” value is reported as 0.68 ˚C.
With `NC(=O)C1CCCN(c2ncnc3[nH]c4cc(F)ccc4c23)C1` (stereo not drawn) [LL1_0016] the “DSF max dTma” value was 0.6 ˚C.
`CNc1ccc(C(=O)N2CC(C(=O)O)CC2(C)C)cn1` (stereo not drawn) [REAL250001652488] was tested, and the “DSF max dTma” value was 0.21 ˚C.
With `NC(=O)c1cc(N2CCCC[C@H]2C(=O)O)ncn1` [REAL250003324764] the “DSF max dTma” value was 0.15 ˚C.
`CNc1ccc(C(=O)N2CC(C(=O)O)CC23CCOCC3)cn1` (stereo not drawn) [REAL300007318908] was tested, and the “DSF max dTma” value was 0.04 ˚C.

Same assay, conditions: maximal thermal upshift vs DMSO control

In order of rising “DSF max dTma” value:
1. CC(C)c1noc(CCc2nc(-c3ccnc4[nH]ccc34)no2)n1 [Z1347]  0 °C
2. CN(C(=O)CN1CCNC(=O)C1)c1ccc(-c2nccs2)cc1 [Z3700]  0 °C
3. Cc1cnc(COC(=O)C(C)(C)c2ccc(O)cc2)o1 [Z0329]  0.06 °C
4. CC(C(=O)N1CCCC1c1nc(C(N)=O)no1)c1cccc(F)c1 (stereo not drawn) [Z4135]  0.15 °C
5. CN(Cc1cccc(O)c1)C(=O)Cc1ccncc1 [Z1186]  0.19 °C
6. O=C(Cc1ccc2c(c1)CCO2)OCc1cc2ccccc2[nH]c1=O [Z0132]  0.21 °C
7. Nc1ncnc(SCCc2cccc(Cl)c2Cl)n1 [Z1086]  0.21 °C
8. COc1ccc(Cl)cc1Cn1cnc2c(N)ncnc21 [Z0953]  0.27 °C
9. Cc1ccc(CC(=O)OCc2noc(C3CC3)n2)cc1O [Z2995]  0.32 °C
10. Cc1ccc(C(=O)N2CC[C@H](Oc3ccccc3)C2)cc1O [Z2024]  0.36 °C
11. O=C(c1cccc(O)c1)N1CCC(Nc2ccccc2)C1 (stereo not drawn) [Z4508]  0.37 °C
12. CN(c1cc(NC2CC2)ncn1)C1CCCN(c2cccnn2)C1 (stereo not drawn) [Z3167]  0.44 °C
13. O=C(COC(=O)c1ccc2nsnc2c1)c1ccccc1 [Z2380]  0.47 °C
14. CN(Cc1nnc2c(=O)[nH]ccn12)C(=O)COC1CC1 [Z0288]  0.49 °C
15. O=C(Nc1nc2ccccc2c(=O)[nH]1)c1cccnc1 [Z3628]  0.49 °C
16. Cc1oc(-c2cccs2)nc1Cc1nc(-c2cncnc2N)no1 [Z3789]  0.56 °C
17. Cc1ccc(-c2noc(CCCSC3CCCNC3=O)n2)cc1F (stereo not drawn) [Z1121]  0.57 °C
18. CC1CN(C(=O)CCc2nc(-c3ccncc3)no2)C1c1ccccc1 (stereo not drawn) [Z0856]  0.6 °C
19. Cc1cc(-n2cncn2)ccc1C(=O)OCC1OCCc2ccccc21 (stereo not drawn) [Z3896]  0.63 °C
20. O=c1[nH]ccn2c(CSc3nc4ccccc4s3)nnc12 [Z1015]  0.67 °C
21. Cc1cc(CSc2nnc3c(=O)[nH]c4ccccc4n23)no1 [Z1628]  0.68 °C
22. O=C(c1cccc(O)c1)N1CC=C(c2ccccc2)C1 [Z4141]  0.71 °C
23. Cc1ccccc1CNc1ncnc(-c2ccccc2)n1 [Z1635]  0.85 °C
24. CN(Cc1ncc(Cl)n1C)c1ncnc(N)n1 [Z3291]  0.98 °C
25. Cc1ccccc1CC(C)c1nc(-c2cc(N)ncn2)no1 (stereo not drawn) [Z4066]  0.98 °C
26. Cc1nc2c(C(=O)OCc3ccnc(N(C)C)c3)ccnc2[nH]1 [Z4620]  1.08 °C
